From patent publication US20130131321A1, “LIGANDS FOR ANTIBODY AND Fc-FUSION PROTEIN PURIFICATION BY AFFINITY CHROMATOGRAPHY” (GRAFFINITY PHARMACEUTICALS GMBH, priority 2010, published 2013)
Where two headings read alike, the source gives them in different places.

What was measured:
Bevacizumab [1] = assay: Microtiter plate chromatography of resins, Bevacizumab whole IgG (bound, yield, selectivity); format: binding, humanized
Bevacizumab [2] = target: T1, Bevacizumab (Homo sapiens, UniProt P01857); assay: as above; format: binding, humanized
T1 construct: fused on or other part: humanised anti-VEGF-A VH domain N-terminal of the gamma-1 constant region (engineered, no UniProt entry)

Tocilizumab = assay: Microtiter plate chromatography of resins, Tocilizumab (bound, yield); format: binding, humanized
Palivizumab = assay: Microtiter plate chromatography of resins, Palivizumab (bound, yield); format: binding, humanized
host cell proteins (HCP) = assay: Microtiter plate chromatography of resins, host cell proteins (bound); format: binding, CHO
[3] = tested on: human poly-IgG (h-poly-IgG); assay: Microtiter plate chromatography of resins, human poly-IgG (bound, yield); format: binding
[4] = fraction of whole IgG Bevacizumab bound to resin
[5] = mass of whole IgG Bevacizumab eluted / mass injected
[6] = fraction of bound Bevacizumab whole IgG / fraction of bound HCP, truncated beyond values of 10
[7] = fraction of injected whole IgG bound to resin
[8] = mass eluted / mass injected, whole IgG
[9] = fraction of injected protein bound to resin
[10] = fraction of injected host cell proteins bound to resin
[11] = bound Bevacizumab whole IgG / bound HCP, truncated beyond values of 10

SMILES | Selectivity (Bevacizumab [1]) | Bevacizumab IgG Bound (%) (Bevacizumab [2]; [4]) | Bevacizumab IgG Yield (%) (Bevacizumab [2]; [5]) | Tocilizumab Bound (%) (Tocilizumab) | Tocilizumab Yield (%) (Tocilizumab) | Palivizumab Bound (%) (Palivizumab) | Palivizumab Yield (%) (Palivizumab) | HCP Bound (%) (host cell proteins (HCP); host cell proteins) | h-poly-IgG Bound (%) [3] | h-poly-IgG Yield (%) [3] | Bevacizumab IgG Bound (%) (Bevacizumab [2]; [7]) | Bevacizumab IgG Yield (%) (Bevacizumab [2]; [8]) | Tocilizumab Bound (%) (Tocilizumab; [9]) | Tocilizumab Yield (%) (Tocilizumab; mass eluted / mass injected) | Palivizumab Bound (%) (Palivizumab; [9]) | Palivizumab Yield (%) (Palivizumab; mass eluted / mass injected) | HCP Bound (%) (host cell proteins (HCP); [10]) | h-poly-IgG Bound (%) [3, 9] | h-poly-IgG Yield (%) ([3]; mass eluted / mass injected) | Selectivity (Bevacizumab [1]; [11]) | further results
COc1ccc(NC(=O)c2nnc(-c3ccco3)o2)cc1C(=O)NCCCN [Ligand L58, 5-[5-(2-Furyl)-1,3,4-oxadiazol-2-yl]carboxamido-2-methoxybenzoic acid (3-amino-1-propyl)amide] | 4.3 | 100% | 90% | 100% | 100% | 97% | 83% | 23% | 98% | 93% |  |  |  |  |  |  |  |  |  |  | 
COc1ccc(NC(=O)c2nn(CCO)c3ccccc23)cc1C(=O)NCCCN [Ligand L59, 5-[1-(2-Hydroxyethyl)indazol-3-ylcarboxamido]-2-methoxybenzoic acid (3-amino-1-propyl)amide] | 3.1 | 100% | 97% | 89% | 89% | 64% | 64% | 32% | 71% | 71% |  |  |  |  |  |  |  |  |  |  | 
COc1ccc(NC(=O)c2nn(C)c3ccccc23)cc1C(=O)NCCOCCOCC(=O)NCCOCCOCC(=O)NCCCN [Ligand L61, 8-{8-[2-Methoxy-5-(1-methylindazol-3-ylcarboxamido)phenylcarboxamido]-3,6-dioxaoctanoylamido}-3,6-dioxaoctanoic acid (3-amino-1-propyl)amide] | 5.1 | 100% | 92% | 84% | 84% | 67% | 66% | 20% | 81% | 81% |  |  |  |  |  |  |  |  |  |  | 
COc1ccc(NC(=O)c2cn3ncccc3n2)cc1C(=O)NCCOCCOCC(=O)NCCCC[C@H](NC(=O)COCCOCCNC(=O)c1cc(NC(=O)c2cn3ncccc3n2)ccc1OC)C(=O)NCCCN [Ligand L62, (S)-2,6-Bis{8-[5-(Imidazo[1,2-b]pyridazin-2-ylcarboxamido)-2-methoxyphenylcarboxamido]-3,6-dioxaoctanoylamido}hexanoic acid (3-amino-1-propyl)amide] |  | 100% | 100% | 95% | 91% | 84% | 77% | 3% | 89% | 89% |  |  |  |  |  |  |  |  |  |  | Selectivity (Bevacizumab [1]; [6]): 10.0
COc1ccc(NC(=O)c2cn3cccnc3n2)cc1C(=O)NCCCN [Ligand L63, 5-(Imidazo[1,2-a]pyrimidin-2-ylcarboxamido)-2-methoxybenzoic acid (3-amino-1-propyl)amide] |  | 100% | 95% | 4% | 4% | 0% | 0% | 3% | 11% | 10% |  |  |  |  |  |  |  |  |  |  | Selectivity (Bevacizumab [1]; [6]): 10.0
COc1ccc(NC(=O)c2cc(-c3ccco3)n(C)n2)cc1C(=O)NCCOCCOCC(=O)NCCOCCOCC(=O)NCCCN [Ligand L65, 8-{8-{5-[5-(2-Furyl)-1-methylpyrazol-3-ylcarboxamido]-2-methoxyphenylcarboxamido}-3,6-dioxaoctanoylamido}-3,6-dioxaoctanoic acid (3-amino-1-propyl)amide] | 9.5 |  |  |  |  |  |  |  |  |  | 100% | 100% | 74% | 71% | 58% | 58% | 11% | 67% | 67% |  | 
COc1ccc(NC(=O)c2cn3ccsc3n2)cc1C(=O)NCCOCCOCC(=O)NCCOCCOCC(=O)NCCCN [Ligand L66, 8-{8-[5-(Imidazo[2,1-b]thiazol-6-ylcarboxamido)-2-methoxyphenylcarboxamido]-3,6-dioxaoctanoylamido}-3,6-dioxaoctanoic acid (3-amino-1-propyl)amide] |  |  |  |  |  |  |  |  |  |  | 100% | 100% | 54% | 53% | 41% | 27% | 0% | 46% | 46% | 10.0 | 
COc1ccc(NC(=O)c2nnc(-c3ccco3)o2)cc1C(=O)NCCOCCOCC(=O)NCCOCCOCC(=O)NCCCN [Ligand L67, 8-{8-{5-[5-(2-Furyl)-1,3,4-oxadiazol-2-ylcarboxamido]-2-methoxyphenylcarboxamido}-3,6-dioxaoctanoylamido}-3,6-dioxaoctanoic acid (3-amino-1-propyl)amide] |  |  |  |  |  |  |  |  |  |  | 100% | 100% | 91% | 86% | 81% | 80% | 2% | 89% | 87% | 10.0 | 
COc1ccc(NC(=O)c2cc(-c3csc(C)n3)on2)cc1C(=O)NCCOCCOCC(=O)NCCOCCOCC(=O)NCCCN [Ligand L68, 8-{8-{2-Methoxy-5-[5-(2-methylthiazol-4-yl)isoxazol-3-ylcarboxamido]phenylcarboxamido}-3,6-dioxaoctanoylamido}-3,6-dioxaoctanoic acid (3-amino-1-propyl)amide] |  |  |  |  |  |  |  |  |  |  | 100% | 100% | 71% | 71% | 65% | 65% | 4% | 65% | 65% | 10.0 | 
COc1ccc(NC(=O)c2cn3ccsc3n2)cc1C(=O)NCCOCCOCCNC(=O)NCCOCCOCCN [Ligand L69, N-(8-Amino-3,6-dioxaoctyl)-N′-{8-[5-(imidazo[2,1-b]thiazol-6-ylcarboxamido)-2-methoxyphenylcarboxamido]-3,6-dioxaoctyl}urea] |  |  |  |  |  |  |  |  |  |  | 100% | 100% | 78% | 73% | 45% | 45% | 2% | 63% | 63% | 10.0 | 
NCCCNC(=O)c1cccc(C(=O)Nc2nnc(-c3ccco3)s2)c1 [Ligand L70, Isophthalic acid N-(3-aminopropyl)-N′-[5-(2-furyl)-1,3,4-thiadiazol-2-yl]amide] | 5.4 |  |  |  |  |  |  |  |  |  | 100% | 83% | 100% | 100% | 55% | 55% | 19% | 64% | 64% |  | 
Cn1nc(NC(=O)c2cccc(C(=O)NCCCN)c2)c2ccccc21 [Ligand L71, Isophthalic acid N-(3-aminopropyl)-N′-(1-methylindazol-3-yl)amide] | 4.0 |  |  |  |  |  |  |  |  |  | 100% | 88% | 51% | 49% | 24% | 24% | 25% | 45% | 45% |  | 
